# Source: patent publication US20210161174A1, “FEED ADDITIVE FOR FARMED ANIMALS” (ADISSEO FRANCE S.A.S., priority 2018, published 2021)
# Marks after values point to notes of the source that are not given here.
# How the values were obtained:
# [1] = Example 2: carcass, abdominal fat and yields of commercial cuts at 42 d; format: in vivo, Broiler Chicken (Cobb 500); conditions: for Abdominal fat yield / Breast fillets yield / Breast tenders yield / Drumsticks yield / Thighs yield / Wings yield: proportion of the carcass
# Description: Study Animals: • Animal: Broiler Chicken • Breed/Strain: Cobb 500 • Description: Day-of-hatch male chicks, sexed at hatchery • Sex: Male
# Processing: On day […] (12) birds are selected from each pen for processing (at 12 reps/trt: 576 birds in total; 144 birds/trt)
# Dietary Treatments • Control (NC, negative control without PQQ) • 0.2 ppm PQQ • 0.5 ppm PQQ • 1 ppm PQQ
# [2] = Example 1: broiler performance (body weight, gain, feed intake, FCR), PQQ in diet, 0 to 49 days; format: in vivo, Broiler Chicken (Ross 708)
# Description: Study Animals: • Animal: Broiler Chicken • Breed/Strain: Ross 708 • Description: Day-of-hatch male chicks, sexed at hatchery • Sex: Male Total number of treatments: 4 Total number of replicates per treatment: 12 Total number of chicks per replicate: 40 Initial age: day-of-hatch: 0 days-of-age Final age: 7 weeks: 49 days-of-age. Feed will be changed based on the days of each phase. • Starter feed will be weighed out and fed from day 0 to 14. On day 14, non-consumed starter feed will be weighed by pen and discarded. • Grower feed will be weighed, issued and fed from day 14 until 28. On day 28, non-consumed grower feed will be weighed by pen and discarded. • Finisher feed will be weighed, issued and fed from day 28 until 42. On day 42, non-consumed finisher feed will be weighed by pen and discarded. • Withdraw feed will be weighed, issued and fed from day 42 until 49. On day 49, non-consumed finisher feed will be weighed by pen and discarded. Performance: Feed consumption and pen weights are determined on days 0, 14, 21, 28, 35, 42 and 49 to calculate average body weight (BW), body weight gain (BWG) and feed conversion ratio (FCR). Final bird weights: At the end of the grow-out period (Day 49), all birds are weighed, as well as any and all remaining feed. Randomized Complete Block Design with 4 treatments×12 replicates/treatment (40 birds/pen), randomized within blocks across the barn to minimize differences in environmental condition. The pen is the experimental unit. Dietary Treatments • Control (NC, negative control without PQQ) • 0.5 ppm PQQ • 1 ppm PQQ • 2 ppm PQQ The results are presented in the following tables 1-4 for broilers fed diets from the first week to the seventh week (corresponding to 0 to 49 days of age). The values are means and SD is standard variation. The feed conversion ratio is the ratio between feed intake and body weight gain.
compound,measurement,setting,value
"O=C(O)c1cc(C(=O)O)c2c(n1)C(=O)C(=O)c1cc(C(=O)O)[nH]c1-2 [PQQ, pyrroloquinoline quinone]",Abdominal fat weight,[1]; 0.2 ppm PQQ,26 g
same,Breast fillets weight,[1]; 0.2 ppm PQQ,680 g
same,Breast tenders weight,[1]; 0.2 ppm PQQ,127ab g
same,Carcass yield (eviscerated carcass as a percentage of body weight),[1]; 0.2 ppm PQQ,80.3^b %
same,Drumsticks weight,[1]; 0.2 ppm PQQ,467 g
same,Thighs weight,[1]; 0.2 ppm PQQ,364 g
same,Wings weight,[1]; 0.2 ppm PQQ,258 g
same,Abdominal fat yield,[1]; 0.2 ppm PQQ,1.05%
same,Breast fillets yield,[1]; 0.2 ppm PQQ,26.8%
same,Breast tenders yield,[1]; 0.2 ppm PQQ,5.03^b %
same,Drumsticks yield,[1]; 0.2 ppm PQQ,18.42^b %
same,Thighs yield,[1]; 0.2 ppm PQQ,14.36^ab %
same,Wings yield,[1]; 0.2 ppm PQQ,10.19^ab %
same,Abdominal fat weight,[1]; 0.5 ppm PQQ,28 g
same,Breast fillets weight,[1]; 0.5 ppm PQQ,677 g
same,Breast tenders weight,[1]; 0.5 ppm PQQ,129ab g
same,Carcass yield (eviscerated carcass as a percentage of body weight),[1]; 0.5 ppm PQQ,80.4^b %
same,Drumsticks weight,[1]; 0.5 ppm PQQ,473 g
same,Thighs weight,[1]; 0.5 ppm PQQ,378 g
same,Wings weight,[1]; 0.5 ppm PQQ,258 g
same,Abdominal fat yield,[1]; 0.5 ppm PQQ,1.11%
same,Breast fillets yield,[1]; 0.5 ppm PQQ,26.8%
same,Breast tenders yield,[1]; 0.5 ppm PQQ,5.12^ab %
same,Drumsticks yield,[1]; 0.5 ppm PQQ,18.73^ab %
same,Thighs yield,[1]; 0.5 ppm PQQ,15.01^a %
same,Wings yield,[1]; 0.5 ppm PQQ,10.42^a %
same,Abdominal fat weight,[1]; 1.0 ppm PQQ,23 g
same,Breast fillets weight,[1]; 1.0 ppm PQQ,702 g
same,Breast tenders weight,[1]; 1.0 ppm PQQ,134a g
same,Carcass yield (eviscerated carcass as a percentage of body weight),[1]; 1.0 ppm PQQ,80.3^b %
same,Drumsticks weight,[1]; 1.0 ppm PQQ,486 g
same,Thighs weight,[1]; 1.0 ppm PQQ,366 g
same,Wings weight,[1]; 1.0 ppm PQQ,259 g
same,Abdominal fat yield,[1]; 1.0 ppm PQQ,0.90%
same,Breast fillets yield,[1]; 1.0 ppm PQQ,27.4%
same,Breast tenders yield,[1]; 1.0 ppm PQQ,5.22^a %
same,Drumsticks yield,[1]; 1.0 ppm PQQ,18.89^a %
same,Thighs yield,[1]; 1.0 ppm PQQ,14.24^b %
same,Wings yield,[1]; 1.0 ppm PQQ,10.05^ab %
same,body weight,"[2]; 0.5 ppm PQQ, wk 1",0.139 kg
same,feed conversion ratio (FCR),"[2]; 0.5 ppm PQQ, wk 1",1.491
same,feed intake,"[2]; 0.5 ppm PQQ, wk 1",0.142 kg
same,weekly body weight gain,"[2]; 0.5 ppm PQQ, wk 1",0.095 kg
same,body weight,"[2]; 0.5 ppm PQQ, wk 2",0.355 kg
same,feed conversion ratio (FCR),"[2]; 0.5 ppm PQQ, wk 2",1.400
same,feed intake,"[2]; 0.5 ppm PQQ, wk 2",0.299 kg
same,weekly body weight gain,"[2]; 0.5 ppm PQQ, wk 2",0.215 kg
same,body weight,"[2]; 0.5 ppm PQQ, wk 3",0.763 kg
same,feed conversion ratio (FCR),"[2]; 0.5 ppm PQQ, wk 3",1.623
same,feed intake,"[2]; 0.5 ppm PQQ, wk 3",0.671 kg
same,weekly body weight gain,"[2]; 0.5 ppm PQQ, wk 3",0.414 kg
same,body weight,"[2]; 0.5 ppm PQQ, wk 4",1.286 kg
same,feed conversion ratio (FCR),"[2]; 0.5 ppm PQQ, wk 4",1.435
same,feed intake,"[2]; 0.5 ppm PQQ, wk 4",0.796 kg
same,weekly body weight gain,"[2]; 0.5 ppm PQQ, wk 4",0.556 kg
same,body weight,"[2]; 0.5 ppm PQQ, wk 5",2.042 kg
same,feed conversion ratio (FCR),"[2]; 0.5 ppm PQQ, wk 5",1.617
same,feed intake,"[2]; 0.5 ppm PQQ, wk 5",1.139 kg
same,weekly body weight gain,"[2]; 0.5 ppm PQQ, wk 5",0.688 kg
same,body weight,"[2]; 0.5 ppm PQQ, wk 6",2.808 kg
same,feed conversion ratio (FCR),"[2]; 0.5 ppm PQQ, wk 6",1.755
same,feed intake,"[2]; 0.5 ppm PQQ, wk 6",1.346 kg
same,weekly body weight gain,"[2]; 0.5 ppm PQQ, wk 6",0.767 kg
same,body weight,"[2]; 0.5 ppm PQQ, wk 7",3.416 kg
same,feed conversion ratio (FCR),"[2]; 0.5 ppm PQQ, wk 7",1.603
same,feed intake,"[2]; 0.5 ppm PQQ, wk 7",0.986 kg
same,weekly body weight gain,"[2]; 0.5 ppm PQQ, wk 7",0.622 kg
same,influence on the body weight,"[2]; 0.5 ppm, as from the second week",positive influence
same,body weight,"[2]; 1.0 ppm PQQ, wk 1",0.145 kg
same,feed conversion ratio (FCR),"[2]; 1.0 ppm PQQ, wk 1",1.514
same,feed intake,"[2]; 1.0 ppm PQQ, wk 1",0.151 kg
same,weekly body weight gain,"[2]; 1.0 ppm PQQ, wk 1",0.100 kg
same,body weight,"[2]; 1.0 ppm PQQ, wk 2",0.371 kg
same,feed conversion ratio (FCR),"[2]; 1.0 ppm PQQ, wk 2",1.418
same,feed intake,"[2]; 1.0 ppm PQQ, wk 2",0.315 kg
same,weekly body weight gain,"[2]; 1.0 ppm PQQ, wk 2",0.225 kg
same,body weight,"[2]; 1.0 ppm PQQ, wk 3",0.790 kg
same,feed conversion ratio (FCR),"[2]; 1.0 ppm PQQ, wk 3",1.619
same,feed intake,"[2]; 1.0 ppm PQQ, wk 3",0.678 kg
same,weekly body weight gain,"[2]; 1.0 ppm PQQ, wk 3",0.419 kg
same,body weight,"[2]; 1.0 ppm PQQ, wk 4",1.329 kg
same,feed conversion ratio (FCR),"[2]; 1.0 ppm PQQ, wk 4",1.427
same,feed intake,"[2]; 1.0 ppm PQQ, wk 4",0.816 kg
same,weekly body weight gain,"[2]; 1.0 ppm PQQ, wk 4",0.573 kg
same,body weight,"[2]; 1.0 ppm PQQ, wk 5",2.112 kg
same,feed conversion ratio (FCR),"[2]; 1.0 ppm PQQ, wk 5",1.608
same,feed intake,"[2]; 1.0 ppm PQQ, wk 5",1.161 kg
same,weekly body weight gain,"[2]; 1.0 ppm PQQ, wk 5",0.723 kg
same,body weight,"[2]; 1.0 ppm PQQ, wk 6",2.927 kg
same,feed conversion ratio (FCR),"[2]; 1.0 ppm PQQ, wk 6",1.741
same,feed intake,"[2]; 1.0 ppm PQQ, wk 6",1.370 kg
same,weekly body weight gain,"[2]; 1.0 ppm PQQ, wk 6",0.787 kg
same,body weight,"[2]; 1.0 ppm PQQ, wk 7",3.612 kg
same,feed conversion ratio (FCR),"[2]; 1.0 ppm PQQ, wk 7",1.616
same,feed intake,"[2]; 1.0 ppm PQQ, wk 7",1.106 kg
same,weekly body weight gain,"[2]; 1.0 ppm PQQ, wk 7",0.686 kg
same,influence on the body weight,"[2]; 1 ppm and 2 ppm, as from the first week up to the end of the assay",positive influence
same,body weight,"[2]; 2.0 ppm PQQ, wk 1",0.146 kg
same,feed conversion ratio (FCR),"[2]; 2.0 ppm PQQ, wk 1",1.406
same,feed intake,"[2]; 2.0 ppm PQQ, wk 1",0.142 kg
same,weekly body weight gain,"[2]; 2.0 ppm PQQ, wk 1",0.102 kg
same,body weight,"[2]; 2.0 ppm PQQ, wk 2",0.373 kg
same,feed conversion ratio (FCR),"[2]; 2.0 ppm PQQ, wk 2",1.414
same,feed intake,"[2]; 2.0 ppm PQQ, wk 2",0.315 kg
same,weekly body weight gain,"[2]; 2.0 ppm PQQ, wk 2",0.224 kg
same,body weight,"[2]; 2.0 ppm PQQ, wk 3",0.794 kg
same,feed conversion ratio (FCR),"[2]; 2.0 ppm PQQ, wk 3",1.608
same,feed intake,"[2]; 2.0 ppm PQQ, wk 3",0.645 kg
same,weekly body weight gain,"[2]; 2.0 ppm PQQ, wk 3",0.425 kg
same,body weight,"[2]; 2.0 ppm PQQ, wk 4",1.331 kg
same,feed conversion ratio (FCR),"[2]; 2.0 ppm PQQ, wk 4",1.469
same,feed intake,"[2]; 2.0 ppm PQQ, wk 4",0.813 kg
same,weekly body weight gain,"[2]; 2.0 ppm PQQ, wk 4",0.548 kg
same,body weight,"[2]; 2.0 ppm PQQ, wk 5",2.065 kg
same,feed conversion ratio (FCR),"[2]; 2.0 ppm PQQ, wk 5",1.605
same,feed intake,"[2]; 2.0 ppm PQQ, wk 5",1.141 kg
same,weekly body weight gain,"[2]; 2.0 ppm PQQ, wk 5",0.727 kg
same,body weight,"[2]; 2.0 ppm PQQ, wk 6",2.835 kg
same,feed conversion ratio (FCR),"[2]; 2.0 ppm PQQ, wk 6",1.741
same,feed intake,"[2]; 2.0 ppm PQQ, wk 6",1.336 kg
same,weekly body weight gain,"[2]; 2.0 ppm PQQ, wk 6",0.77 kg
same,body weight,"[2]; 2.0 ppm PQQ, wk 7",3.472 kg
same,feed conversion ratio (FCR),"[2]; 2.0 ppm PQQ, wk 7",1.615
same,feed intake,"[2]; 2.0 ppm PQQ, wk 7",1.041 kg
same,weekly body weight gain,"[2]; 2.0 ppm PQQ, wk 7",0.648 kg
same,influence on the feed intake,[2]; as from a concentration of 1 ppm,has an influence on the feed intake
